Results: patent US5637583A, “Aminocyclohexylesters and uses thereof” (University of British Columbia, priority 1994, dated 1997)
Counter-ions that a name gives are not always drawn. Like-named read-outs stand apart in the source and are kept apart here.

How the values were obtained:
[1] = molecular target: T1, cardiac sodium channel (Rattus norvegicus, UniProt P15389); assay: ECG parameters in anesthetized rats (RSh, PR, QRS; cardiac sodium channel blockade); type: in vivo; conditions: i.v. bolus; for ED25 PR (dose required to produce a 25% increase): P-R interval; for ED25 QRS (dose required to produce a 25% increase): QRS interval
T1 sequence (P15389 whole entry): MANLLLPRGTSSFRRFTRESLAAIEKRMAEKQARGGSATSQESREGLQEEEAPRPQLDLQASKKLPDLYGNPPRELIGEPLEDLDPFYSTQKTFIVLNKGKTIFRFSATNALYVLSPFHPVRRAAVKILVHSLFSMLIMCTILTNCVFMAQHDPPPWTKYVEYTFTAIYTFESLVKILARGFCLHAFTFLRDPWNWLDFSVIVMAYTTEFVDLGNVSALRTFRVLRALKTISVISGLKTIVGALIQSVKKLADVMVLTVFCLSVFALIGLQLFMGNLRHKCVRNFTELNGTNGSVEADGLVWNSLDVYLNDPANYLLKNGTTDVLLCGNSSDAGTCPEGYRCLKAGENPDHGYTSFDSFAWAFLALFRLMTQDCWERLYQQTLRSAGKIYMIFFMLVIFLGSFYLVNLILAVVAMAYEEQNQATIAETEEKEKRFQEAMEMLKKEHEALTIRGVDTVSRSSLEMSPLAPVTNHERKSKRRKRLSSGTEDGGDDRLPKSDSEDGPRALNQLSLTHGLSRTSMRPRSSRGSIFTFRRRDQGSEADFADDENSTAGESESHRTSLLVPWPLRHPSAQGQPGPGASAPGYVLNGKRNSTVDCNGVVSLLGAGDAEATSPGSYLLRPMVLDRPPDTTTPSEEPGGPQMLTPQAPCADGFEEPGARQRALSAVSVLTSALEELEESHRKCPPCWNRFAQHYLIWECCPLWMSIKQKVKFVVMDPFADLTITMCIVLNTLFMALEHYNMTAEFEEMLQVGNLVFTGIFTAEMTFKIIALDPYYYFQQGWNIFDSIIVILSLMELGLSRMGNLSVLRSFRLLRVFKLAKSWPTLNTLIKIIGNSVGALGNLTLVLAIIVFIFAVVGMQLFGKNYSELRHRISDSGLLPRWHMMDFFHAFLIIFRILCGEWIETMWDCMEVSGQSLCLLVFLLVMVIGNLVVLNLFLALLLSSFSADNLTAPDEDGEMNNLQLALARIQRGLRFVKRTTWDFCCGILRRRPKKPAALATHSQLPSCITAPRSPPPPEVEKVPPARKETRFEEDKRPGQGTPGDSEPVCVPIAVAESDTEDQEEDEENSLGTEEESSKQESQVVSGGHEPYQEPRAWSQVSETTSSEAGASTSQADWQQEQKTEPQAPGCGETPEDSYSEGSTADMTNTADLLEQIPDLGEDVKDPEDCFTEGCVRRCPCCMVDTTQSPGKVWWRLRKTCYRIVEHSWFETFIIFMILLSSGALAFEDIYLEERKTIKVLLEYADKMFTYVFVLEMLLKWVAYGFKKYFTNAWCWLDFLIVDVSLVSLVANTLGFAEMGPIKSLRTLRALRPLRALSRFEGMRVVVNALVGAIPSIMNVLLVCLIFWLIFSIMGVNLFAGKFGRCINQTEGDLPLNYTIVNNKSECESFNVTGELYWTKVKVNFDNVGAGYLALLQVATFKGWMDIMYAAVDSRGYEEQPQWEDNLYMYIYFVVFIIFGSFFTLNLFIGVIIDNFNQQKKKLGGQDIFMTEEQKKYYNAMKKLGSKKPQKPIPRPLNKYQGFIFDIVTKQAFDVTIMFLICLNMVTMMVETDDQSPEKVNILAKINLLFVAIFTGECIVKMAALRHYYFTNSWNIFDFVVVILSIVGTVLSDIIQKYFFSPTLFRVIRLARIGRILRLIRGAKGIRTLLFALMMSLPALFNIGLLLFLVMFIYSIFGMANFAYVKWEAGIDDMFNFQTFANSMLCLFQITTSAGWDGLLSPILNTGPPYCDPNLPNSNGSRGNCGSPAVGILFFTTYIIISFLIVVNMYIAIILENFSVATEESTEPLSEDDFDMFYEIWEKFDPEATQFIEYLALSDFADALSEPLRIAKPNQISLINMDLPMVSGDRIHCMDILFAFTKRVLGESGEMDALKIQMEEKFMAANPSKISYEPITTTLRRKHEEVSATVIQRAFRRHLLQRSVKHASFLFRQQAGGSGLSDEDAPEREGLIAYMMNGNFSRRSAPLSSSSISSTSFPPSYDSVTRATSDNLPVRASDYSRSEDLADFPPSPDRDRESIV
Procedure: Rats weighing 200-250 gms were used in this example. Animals were anesthetized with 60 mg/kg pentobarbitone i.p. The carotid artery and jugular vein were cannulated for measurement of blood pressure and drug injection, respectively. ECG was recorded by insertion of electrodes placed along the anatomical axis of the heart. All compounds were given as bolus injections.
Various ECG parameters were measured. The most sensitive of these for measuring sodium channel blockade is RSh (J. Pharmacology Methods 27:51-58 (1992)). Table 4 describes the results of the tests as ED25 (micromoles/kg) which are the doses required to produce a 25% increase in the parameter measured (ne=not estimated). The increases in P-R interval, QRS interval and RSh indicate cardiac sodium channel blockade while the increase in Q-T interval indicates ancillary cardiac potassium channel blockade which is the property of a type 1 a antiarrhythmic.

[2] = system: cardiac potassium channel; assay: ECG parameters in anesthetized rats (QT; ancillary cardiac potassium channel blockade); type: in vivo, rat; conditions: i.v. bolus, Q-T interval
Procedure: Various ECG parameters were measured. […] The increases in P-R interval, QRS interval and RSh indicate cardiac sodium channel blockade while the increase in Q-T interval indicates ancillary cardiac potassium channel blockade which is the property of a type 1 a antiarrhythmic.

[3] = molecular target: T1, cardiac sodium channel; assay: Whole cell voltage clamp tests, single isolated adult rat cardiac cells; type: cell-based
Procedure: In order to directly measure cardiac sodium channel blockade, standard whole cell voltage clamp tests were carried out using single isolated adult rat cardiac cells. Results in the form of EC50 values, which are micromolar concentrations required to produce a 50% reduction in sodium current, are presented in Table 6.

[4] = system: phrenic nerve diaphragm; assay: Nerve conduction blockade in vitro, phrenic nerve diaphragm; conditions: Rattus norvegicus, read-out: concentration at which the twitch response from electrical stimulation is reduced to 50% of control value
Procedure: In order to establish the potency of the compounds to block nerve conduction, two in vitro assays were used. The first was the phrenic nerve diaphragm of the rat. […] Nerve blockade in these preparations is indicative of local anesthetic activity. Compounds were administered to the bath solution in increasing concentrations while the preparations were being stimulated with regular electrical impulses.

[5] = system: hypogastric nerve vas deferens; assay: Nerve conduction blockade in vitro, hypogastric nerve vas deferens; conditions: read-out: concentration at which the twitch response from electrical stimulation is reduced to 50% of control value
Procedure: In order to establish the potency of the compounds to block nerve conduction, two in vitro assays were used. The first was the phrenic nerve diaphragm of the rat. The second was the hypogastric nerve vas deferens. Nerve blockade in these preparations is indicative of local anesthetic activity. Compounds were administered to the bath solution in increasing concentrations while the preparations were being stimulated with regular electrical impulses.

[6] = system: conscious rats subject to coronary artery occlusion; assay: Antiarrhythmic efficacy: incidence of cardiac arrhythmias in conscious rats subject to coronary artery occlusion; type: in vivo, rat; conditions: score 0-9 per Table 2, 30 min after occlusion
Procedure: Antiarrhythmic efficacy was assessed by investigating the effect of a compound on the incidence of cardiac arrhythmias in conscious rats subject to coronary artery occlusion. Rats weighing 200-300 gms were subjected to preparative surgery and assigned to groups in a random block design. In each case, the animal was anesthetized with halothane during surgical preparation. The left femoral artery was cannulated for measurement of mean arterial blood pressure and withdrawal of blood samples. The left femoral vein was also cannulated for injection of drugs. The thoracic cavity was opened and a polyethylene occluder loosely placed around the left anterior descending coronary artery. The thoracic cavity was then closed. ECG was recorded by insertion of electrodes placed along the anatomical axis of the heart. All cannulae and electrode leads were exteriorized in the mid scapular region. In random and double-blind manner, about 0.5 to 2 hours post-surgery, an infusion of vehicle, or the compound to be tested was given. After 15 minutes infusion, the occluder was pulled so as to produce coronary artery occlusion. ECG, arrhythmias, blood pressure, heart rate and mortality were monitored for 30 minutes after occlusion. Arrhythmias were recorded as ventricular tachycardia (VT) and ventricular fibrillation (VF) and scored according to Curtis, M. J. and Walker, M. J. A., Cardiovasc.
VPB=ventricular premature beats
VT=ventricular tachycardia
VF=ventricular fibrillation
Occlusion is associated with increases in R-wave height and "S-T" segment elevation; and an occluded zone (measured after death by cardiogreen dye perfusion) in the range of 25%-50% of total left-ventricular weight.

[7] = molecular target: T1, cardiac sodium channel; assay: Electrical stimulation of left ventricle in rats (iT, VFT; cardiac sodium channel blockade); type: in vivo; conditions: infusion rate for 25% increase from control; anesthetized rats
Procedure: Rats were prepared according to the preceding procedure. Two silver stimulating electrodes were inserted through the chest wall and implanted in the left ventricle. Square wave stimulation was used to determine threshold current for capture, ventricular fibrillation threshold current, and effective refractory period (Howard, P. G. and Walker, M. J. A., Proc. West. Pharmacol. Soc. 33:123-127 (1990)). Table 5 contains ED25 values for these indices of cardiac sodium channel blockade, where the ED25 is the infusion rate in micromoles/kg/minute of compound required to elicit a 25% increase from control. The increases in refractoriness indicate ancillary blockade of potassium channels. The threshold current for capture is represented by "iT". The fibrillation threshold current is represented by "VFT". The effective refracting period is represented by "ERP".

[8] = system: potassium channels; assay: Electrical stimulation of left ventricle in rats (ERP; ancillary blockade of potassium channels); type: in vivo, rat; conditions: infusion rate for 25% increase from control; anesthetized rats
Source text: Two silver stimulating electrodes were inserted through the chest wall and implanted in the left ventricle. Square wave stimulation was used to determine threshold current for capture, ventricular fibrillation threshold current, and effective refractory period (Howard, P. G. and Walker, M. J. A., Proc. West. Pharmacol. Soc. 33:123-127 (1990)). […] The threshold current for capture is represented by "iT". The fibrillation threshold current is represented by "VFT". The effective refracting period is represented by "ERP".

[9] = dose 8 micromoles/kg/min infusion
[10] = whole cell voltage clamp, isolated adult rat cardiac cells, read-out: EC50 (concentration required to produce a 50% reduction in sodium current)
[11] = dose 4 micromoles/kg/min infusion

SMILES	ED25 PR (dose required to produce a 25% increase) [1] [µmol/kg]	ED25 QRS (dose required to produce a 25% increase) [1] [µmol/kg]	ED25 RSh (dose required to produce a 25% increase) [1] [µmol/kg]	ED25 QT (dose required to produce a 25% increase) [2] [µmol/kg]	EC50 [3] [µM]	IC50 [4] [µM]	IC50 [5] [µM]	AS (arrhythmia score) ([6]; dose 10 micromoles/kg/min infusion)	ED25 VFT (fibrillation threshold current) [7] [µmol/kg/min]	ED25 iT (threshold current for capture) [7] [µmol/kg/min]	ED25 ERP (effective refractory period) [8] [µmol/kg/min]	AS (arrhythmia score) [6, 9]	EC50 [3, 10] [µM]	AS (arrhythmia score) ([6]; dose 12 micromoles/kg/min infusion)	AS (arrhythmia score) ([6]; dose 5 micromoles/kg/min infusion)	AS (arrhythmia score) ([6]; dose 2 micromoles/kg/min infusion)	AS (arrhythmia score) [6, 11]	AS (arrhythmia score) ([6]; dose 20 micromoles/kg/min infusion)	IC50 ([4]; phrenic nerve diaphragm, in vitro) [µM]	IC50 ([5]; hypogastric nerve vas deferens, in vitro) [µM]
O=C(COc1ccc(Cl)c(Cl)c1)O[C@@H]1CCCC[C@H]1N1CC2CCC(CC2)C1 (relative stereo) [Compound #3, (±)-trans-{2-[N-(3-azabicyclo[3.2.2]nonyl)]cyclohexyl}(3,4-dichlorophenoxy)acetate monohydrochloride]	140	130	140	160	> 150	200	300													
O=C(Cc1ccccc1)O[C@@H]1CCCC[C@H]1N1CCOCC1 (relative stereo) [Compound #10, (±)-trans-[2-(4-morpholinyl)cyclohexyl]phenylacetate monohydrochloride]			16	25	> 300			2.2	1	15	8									
O=C(Cc1ccc([N+](=O)[O-])cc1)O[C@@H]1CCCC[C@H]1N1CCOCC1 (relative stereo) [Compound #12, (+5-trans-[2-(4-morpholinyl)cyclohexyl](4-nitrophenyl)acetatemonohydrochloride]	64	82	17	44					5	4	6	3	> 300							
Cl.O=C(O[C@@H]1CCCC[C@H]1N1CCOCC1)c1cccc2ccccc12 (racemic) [Compound #15, (±)-trans-[2-(4-morpholinyl)cyclohexyl]-1-naphthoate monohydrochloride]	340	90	80						18	33	20			2						
O=C(COc1ccc(Cl)c(Cl)c1)O[C@@H]1CCCC[C@H]1N1CCOCC1 (relative stereo) [Compound #4, (±)-trans-[2-(4-morpholinyl)cyclohexyl](3,4-dichlorophenoxy)acetate monohydrochloride]	44		10										> 500		3.6					
O=C(Cc1cccc2ccccc12)O[C@@H]1CCCC[C@H]1N1CCOCC1 (relative stereo) [Compound #8, (±)-trans-[2-(4-morpholinyl)cyclohexyl]naphthyl-1-acetate monohydrochloride]	20	42	11	57					2	5	4		80			3				
O=C(COc1ccc(Cl)c(Cl)c1)O[C@@H]1CCCC[C@H]1N1CCCCCC1 (relative stereo) [Compound #5, (±)-trans-[2-(1-hexahydroazepinyl)cyclohexyl](3,4-dichlorophenoxy)acetate monohydrochloride]	43	66	36	45		180	100		4	5	4						3			
O=C(COc1ccc(Cl)c(Cl)c1)O[C@@H]1CCCC[C@H]1N1CCCC1 (relative stereo) [Compound #1, (±)-trans-[2-(1-pyrrolidinyl)cyclohexyl](3,4-dichlorophenoxy)acetate monohydrochloride]	17		10	78	200	90	40		3	6	4									
O=C(CC1CCCCC1)O[C@@H]1CCCC[C@H]1N1CCCC1 (relative stereo) [Compound #7, (±)-trans-[2-(1-pyrrolidinyl)cyclohexyl](cyclohexyl)acetate monohydrochloride]	84		6	41																
O=C(Cc1ccc2ccccc2c1)O[C@@H]1CCCC[C@H]1N1CCOCC1 (relative stereo) [Compound #9, (±)-trans-[2-(4-morpholinyl)cyclohexyl]naphthyl-2-acetate monohydrochloride]			13	20					7	34	8		> 100				1.3			
O=C(COc1cccc2ccccc12)O[C@@H]1CCCC[C@H]1N1CCCC1 (relative stereo) [Compound #2, (±)-trans-[2-(1-pyrrolidinyl)cyclohexyl](1-naphthoxy)acetate monohydrochloride]	23		11	53					2	5	3		50					4	120	25
Cl.O=C(Cc1cccc2sccc12)O[C@@H]1CCCC[C@H]1N1CCOCC1 (racemic) [Compound #16, (±)-trans-[2-(4-morpholinyl)cyclohexyl]benzo[b]thiophene-4-acetate monohydrochloride]	230	690	23	33					2	15	5	0.3	225							
